Results reported in ChEMBL document CHEMBL1131247, “Substituted naphthofurans as hallucinogenic phenethylamine-ergoline hybrid molecules with unexpected muscarinic antagonist activity” (J Med Chem, 1998).
Activity calls are given as the source filed them. The calls are words filed in the database; no cut-off is given here.

Tests used:
[1] = target: T1, 5-hydroxytryptamine receptor 1A (Rattus norvegicus, UniProt P19327); assay: Affinity at [3H]8-OH-DPAT-labeled 5-hydroxytryptamine 1A receptor in rat brain homogenate was determined; format: tissue-based
T1 sequence (P19327 whole entry): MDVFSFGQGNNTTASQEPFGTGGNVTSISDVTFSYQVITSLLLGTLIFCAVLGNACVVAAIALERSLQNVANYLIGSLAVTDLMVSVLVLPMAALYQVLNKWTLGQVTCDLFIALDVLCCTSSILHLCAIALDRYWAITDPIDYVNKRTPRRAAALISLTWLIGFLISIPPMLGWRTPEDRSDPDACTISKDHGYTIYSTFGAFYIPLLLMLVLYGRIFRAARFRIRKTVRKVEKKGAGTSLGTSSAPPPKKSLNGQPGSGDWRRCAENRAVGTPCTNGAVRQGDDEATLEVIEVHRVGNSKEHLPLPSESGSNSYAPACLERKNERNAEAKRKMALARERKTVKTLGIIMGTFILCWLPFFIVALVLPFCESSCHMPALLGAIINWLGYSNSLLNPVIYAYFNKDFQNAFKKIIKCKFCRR

[2] = target: 5-hydroxytryptamine receptor 2A (Rattus norvegicus, UniProt P14842); assay: Affinity at [3H]ketanserin-labeled 5-hydroxytryptamine 2A receptor in rat brain homogenate was determined; format: tissue-based
5-hydroxytryptamine receptor 2A (Rattus norvegicus, UniProt P14842), sequence (P14842 whole entry): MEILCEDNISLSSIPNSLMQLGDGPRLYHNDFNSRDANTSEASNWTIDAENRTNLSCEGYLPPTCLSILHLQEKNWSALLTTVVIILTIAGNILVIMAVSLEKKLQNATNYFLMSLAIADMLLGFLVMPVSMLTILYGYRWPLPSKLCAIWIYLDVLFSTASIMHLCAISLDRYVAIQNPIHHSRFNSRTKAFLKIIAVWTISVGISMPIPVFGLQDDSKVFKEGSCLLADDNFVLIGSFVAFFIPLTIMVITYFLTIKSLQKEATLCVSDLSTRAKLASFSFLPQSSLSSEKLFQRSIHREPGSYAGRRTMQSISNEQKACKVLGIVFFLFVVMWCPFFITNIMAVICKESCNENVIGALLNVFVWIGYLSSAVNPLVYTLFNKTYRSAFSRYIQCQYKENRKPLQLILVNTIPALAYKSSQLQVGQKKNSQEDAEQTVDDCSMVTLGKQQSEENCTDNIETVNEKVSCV

[3] = target: T2, Muscarinic acetylcholine receptor M1 (Mus musculus) (UniProt P12657)
T2 sequence (whole entry): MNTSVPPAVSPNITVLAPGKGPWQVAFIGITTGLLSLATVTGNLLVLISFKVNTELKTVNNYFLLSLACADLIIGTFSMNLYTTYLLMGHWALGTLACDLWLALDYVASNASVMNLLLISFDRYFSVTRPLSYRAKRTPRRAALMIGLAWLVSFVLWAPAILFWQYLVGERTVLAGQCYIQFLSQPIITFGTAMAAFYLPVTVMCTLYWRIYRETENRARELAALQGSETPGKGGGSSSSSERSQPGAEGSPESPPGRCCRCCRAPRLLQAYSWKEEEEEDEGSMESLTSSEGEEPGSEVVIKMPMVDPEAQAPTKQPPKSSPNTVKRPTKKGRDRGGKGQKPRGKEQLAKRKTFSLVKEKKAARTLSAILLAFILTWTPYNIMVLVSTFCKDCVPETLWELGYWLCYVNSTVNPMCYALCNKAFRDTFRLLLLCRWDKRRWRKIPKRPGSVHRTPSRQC
Description: Compound was evaluated for the affinity at the cloned radio labelled Muscarinic acetylcholine receptor M1

[4] = target: T3, Muscarinic acetylcholine receptor M5 (Rattus norvegicus) (UniProt P08911)
T3 sequence (whole entry): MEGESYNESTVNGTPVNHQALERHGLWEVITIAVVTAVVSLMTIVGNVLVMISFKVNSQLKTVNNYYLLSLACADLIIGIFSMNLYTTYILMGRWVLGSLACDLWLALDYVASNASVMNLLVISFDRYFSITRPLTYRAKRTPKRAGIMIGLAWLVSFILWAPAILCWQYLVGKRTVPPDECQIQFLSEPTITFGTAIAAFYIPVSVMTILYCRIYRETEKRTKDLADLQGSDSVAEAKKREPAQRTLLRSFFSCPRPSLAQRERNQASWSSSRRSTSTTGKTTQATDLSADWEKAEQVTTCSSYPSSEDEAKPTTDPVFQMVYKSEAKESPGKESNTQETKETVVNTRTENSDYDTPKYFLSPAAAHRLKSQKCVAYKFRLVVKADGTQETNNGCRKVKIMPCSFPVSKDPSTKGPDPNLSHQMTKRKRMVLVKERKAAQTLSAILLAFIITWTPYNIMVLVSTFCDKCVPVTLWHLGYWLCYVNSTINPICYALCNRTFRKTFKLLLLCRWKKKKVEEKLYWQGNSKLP
Description: Compound was evaluated for the affinity at the cloned radio labelled Muscarinic acetylcholine receptor M5

[5] = target: T4, Muscarinic acetylcholine receptor M2 (Rattus norvegicus) (UniProt P10980)
T4 sequence (whole entry): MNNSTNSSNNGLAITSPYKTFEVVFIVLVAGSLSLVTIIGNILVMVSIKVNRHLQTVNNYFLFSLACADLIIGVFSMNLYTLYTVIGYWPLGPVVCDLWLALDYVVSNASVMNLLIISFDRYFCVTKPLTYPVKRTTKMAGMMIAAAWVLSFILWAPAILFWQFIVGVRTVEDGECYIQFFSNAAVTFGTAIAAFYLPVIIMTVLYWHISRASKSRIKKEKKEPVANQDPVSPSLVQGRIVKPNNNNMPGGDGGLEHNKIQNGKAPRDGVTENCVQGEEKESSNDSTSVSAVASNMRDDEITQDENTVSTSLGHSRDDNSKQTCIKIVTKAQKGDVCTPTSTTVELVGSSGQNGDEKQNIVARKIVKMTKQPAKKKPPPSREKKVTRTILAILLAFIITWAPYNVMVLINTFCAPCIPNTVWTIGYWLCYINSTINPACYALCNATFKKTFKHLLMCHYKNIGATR
Description: Compound was evaluated for the affinity at the cloned radio labelled Muscarinic acetylcholine receptor M2

[6] = target: Muscarinic acetylcholine receptor M3 (Rattus norvegicus) (UniProt P08483)
Muscarinic acetylcholine receptor M3 (Rattus norvegicus), sequence (P08483 whole entry, looked up): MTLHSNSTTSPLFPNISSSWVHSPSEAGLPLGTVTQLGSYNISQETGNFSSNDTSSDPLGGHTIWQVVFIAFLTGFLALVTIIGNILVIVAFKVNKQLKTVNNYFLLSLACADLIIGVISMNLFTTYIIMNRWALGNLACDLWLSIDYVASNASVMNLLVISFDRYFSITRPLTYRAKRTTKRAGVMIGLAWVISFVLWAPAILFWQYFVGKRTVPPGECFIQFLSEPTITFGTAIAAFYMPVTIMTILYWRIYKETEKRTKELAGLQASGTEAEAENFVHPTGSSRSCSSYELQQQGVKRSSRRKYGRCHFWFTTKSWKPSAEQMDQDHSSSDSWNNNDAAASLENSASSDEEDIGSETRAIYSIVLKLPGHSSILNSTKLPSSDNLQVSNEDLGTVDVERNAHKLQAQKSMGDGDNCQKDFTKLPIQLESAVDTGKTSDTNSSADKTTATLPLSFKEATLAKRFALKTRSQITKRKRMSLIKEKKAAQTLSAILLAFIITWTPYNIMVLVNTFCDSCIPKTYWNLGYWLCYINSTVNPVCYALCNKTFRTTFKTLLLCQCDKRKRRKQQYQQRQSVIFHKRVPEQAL
Description: Compound was evaluated for the affinity at the cloned radio labelled Muscarinic acetylcholine receptor M3

[7] = target: T5, Muscarinic acetylcholine receptor M4 (Rattus norvegicus) (UniProt P08485)
T5 sequence (whole entry): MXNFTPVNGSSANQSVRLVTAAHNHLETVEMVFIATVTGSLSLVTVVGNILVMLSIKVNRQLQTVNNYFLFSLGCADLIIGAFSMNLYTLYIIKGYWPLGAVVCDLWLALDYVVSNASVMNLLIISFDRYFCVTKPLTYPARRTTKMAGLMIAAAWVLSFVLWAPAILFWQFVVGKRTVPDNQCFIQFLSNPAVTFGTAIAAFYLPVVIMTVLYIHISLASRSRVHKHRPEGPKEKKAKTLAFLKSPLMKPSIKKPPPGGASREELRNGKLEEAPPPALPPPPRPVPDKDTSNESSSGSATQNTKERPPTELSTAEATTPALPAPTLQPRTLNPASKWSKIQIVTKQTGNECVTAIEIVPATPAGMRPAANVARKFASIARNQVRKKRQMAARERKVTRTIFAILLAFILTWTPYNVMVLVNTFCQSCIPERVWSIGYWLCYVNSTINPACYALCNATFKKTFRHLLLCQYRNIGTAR
Description: Compound was evaluated for the affinity at the cloned radio labelled Muscarinic acetylcholine receptor M4

Rattus norvegicus [8] = species: Rattus norvegicus; assay: Percentage of animals emitting 50 presses on the LSD appropriate lever during the test period; format: functional
Rattus norvegicus [9] = species: Rattus norvegicus; assay: (§1) Effective dose for LSD-like behavioral effect in rats; Not significant; format: functional, organism-based
Rattus norvegicus [10] = assay: Percentage of animals failing to emit 50 presses on either lever within the 15-min test period in rat at 1.46 mg/kg (4 uM/kg); format: functional
[11] = target: T6, 5-hydroxytryptamine receptor 2A (Homo sapiens, UniProt P28223); assay: Binding ability of compound at cloned human 5-hydroxytryptamine 2A receptor using [125 I]DOI as radioligand
T6 sequence (P28223 whole entry): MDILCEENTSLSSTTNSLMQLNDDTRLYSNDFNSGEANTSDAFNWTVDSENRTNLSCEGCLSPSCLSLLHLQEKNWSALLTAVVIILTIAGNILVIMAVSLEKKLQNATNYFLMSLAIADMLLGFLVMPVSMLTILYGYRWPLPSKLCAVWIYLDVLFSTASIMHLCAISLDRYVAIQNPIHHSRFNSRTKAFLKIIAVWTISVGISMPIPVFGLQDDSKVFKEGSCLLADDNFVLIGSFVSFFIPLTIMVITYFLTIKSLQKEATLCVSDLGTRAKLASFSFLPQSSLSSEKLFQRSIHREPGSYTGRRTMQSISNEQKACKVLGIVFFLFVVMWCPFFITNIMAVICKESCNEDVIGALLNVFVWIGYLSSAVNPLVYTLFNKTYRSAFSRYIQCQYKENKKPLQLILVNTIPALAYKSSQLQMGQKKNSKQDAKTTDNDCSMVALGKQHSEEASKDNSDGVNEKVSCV

Rattus norvegicus [12] = assay: Percentage of animals failing to emit 50 presses on either lever within the 15-min test period in rat at 0.78 mg/kg (2 umol/kg); format: functional
[13] = target: T7, 5-hydroxytryptamine receptor 2B (Homo sapiens, UniProt P41595); assay: Binding ability of compound at cloned human 5-hydroxytryptamine 2B receptor using [3H]5-HT 2B as radioligand
T7 sequence (P41595 whole entry): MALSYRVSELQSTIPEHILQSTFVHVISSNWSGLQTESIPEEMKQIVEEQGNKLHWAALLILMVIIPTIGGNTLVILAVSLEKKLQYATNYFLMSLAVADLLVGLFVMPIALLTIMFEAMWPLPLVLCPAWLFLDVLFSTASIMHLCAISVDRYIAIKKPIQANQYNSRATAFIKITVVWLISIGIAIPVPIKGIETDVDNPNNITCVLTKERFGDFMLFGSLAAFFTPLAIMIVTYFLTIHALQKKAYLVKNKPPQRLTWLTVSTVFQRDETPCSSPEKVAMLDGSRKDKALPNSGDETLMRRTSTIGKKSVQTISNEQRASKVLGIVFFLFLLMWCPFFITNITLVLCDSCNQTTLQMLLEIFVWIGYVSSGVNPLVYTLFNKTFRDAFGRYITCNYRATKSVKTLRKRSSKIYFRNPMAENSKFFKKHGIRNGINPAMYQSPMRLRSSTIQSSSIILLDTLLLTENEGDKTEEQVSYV

Rattus norvegicus [14] = assay: Percentage of animals failing to emit 50 presses on either lever within the 15-min test period in rat at 0.365 mg/kg (1 uM/kg); format: functional
Rattus norvegicus [15] = assay: Percentage of animals failing to emit 50 presses on either lever within the 15-min test period in rat at 5.84 mg/kg (16 uM/kg); format: functional
Rattus norvegicus [16] = species: Rattus norvegicus; assay: as §1; format: functional, organism-based; remark: listed apart in the source
Rattus norvegicus [17] = assay: Percentage of animals failing to emit 50 presses on either lever within the 15-min test period in rat at 2.92 mg/kg (8 uM/kg); format: functional
[18] = target: T8, 5-hydroxytryptamine receptor 2C (Homo sapiens, UniProt P28335); assay: Binding ability of compound at cloned human 5-hydroxytryptamine 2C receptor using [125 I]DOI as radioligand
T8 sequence (P28335 whole entry): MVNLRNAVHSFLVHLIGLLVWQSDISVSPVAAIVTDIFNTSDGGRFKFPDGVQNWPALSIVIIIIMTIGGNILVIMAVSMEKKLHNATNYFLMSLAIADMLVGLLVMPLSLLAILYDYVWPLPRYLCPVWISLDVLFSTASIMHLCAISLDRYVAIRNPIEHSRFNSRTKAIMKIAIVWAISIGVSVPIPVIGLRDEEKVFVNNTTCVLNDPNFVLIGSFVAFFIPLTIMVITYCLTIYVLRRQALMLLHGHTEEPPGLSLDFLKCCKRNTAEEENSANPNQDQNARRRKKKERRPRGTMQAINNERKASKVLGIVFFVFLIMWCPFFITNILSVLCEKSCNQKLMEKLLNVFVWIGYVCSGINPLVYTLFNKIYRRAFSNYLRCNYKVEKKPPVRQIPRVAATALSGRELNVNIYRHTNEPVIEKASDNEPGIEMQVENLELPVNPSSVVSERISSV

[19] = target: T8, 5-hydroxytryptamine receptor 2C; assay: Binding ability of compound at cloned human 5-hydroxytryptamine 2C receptor using [3H]- mesulergine as radioligand
Rattus norvegicus [20] = species: Rattus norvegicus; assay: Effective dose for LSD-like behavioral effect in rats; format: functional
[21] = target: T7, 5-hydroxytryptamine receptor 2B; assay: Binding ability of compound at cloned human 5-hydroxytryptamine 2B receptor using [3H]rauwolscine as radioligand
[22] = target: T6, 5-hydroxytryptamine receptor 2A; assay: Binding ability of compound at cloned human 5-hydroxytryptamine 2A receptor using [3H]ketanserin as radioligand

SMILES	Ki [1]	Ki [2]	K 0.5 [3]	K 0.5 [4]	K 0.5 [5]	K 0.5 [6]	K 0.5 [7]	Ki [11]	Ki [13]	Ki [18]	further results
CCCN(CCC)[C@H]1Cc2c(OC)ccc3c2[C@@H](CO3)C1	144000 nM	644 nM									
COc1ccc2c3c1C[C@H](N)C[C@@H]3CO2			149 nM	236 nM	33.4 µM	129 nM	240 nM				
COc1cc(Br)c2c3c1C[C@H](N)C[C@H]3CO2		3880 nM						8500 nM	11200 nM	4190 nM	SDL (Rattus norvegicus [8]): 27%; ED50 (Rattus norvegicus [9]): inactive; D (Rattus norvegicus [10]): 0%; D (Rattus norvegicus [12]): 0%; D (Rattus norvegicus [14]): 0%; D (Rattus norvegicus [15]): 11%; ED50 (Rattus norvegicus [16]): inactive; D (Rattus norvegicus [17]): 0%
C[C@@H](N)Cc1c2c(c(Br)c3c1OCC3)OCC2	4300 nM	18 nM						0.48 nM	1.6 nM	0.3 nM	Ki [19]: 2.28 nM; ED50 (Rattus norvegicus [20]): 0.061 mg/kg; Ki [21]: 1.15 nM; Ki [22]: 10.7 nM
COc1ccc2c3c1C[C@H](N(C)C)C[C@@H]3CO2	38000 nM	967 nM	846 nM	1100 nM	0.953 µM	654 nM	913 nM				
